Assay results as given in patent US20230066286A1, “DEUTERATED TRYPTAMINE DERIVATIVES AND METHODS OF USE” (priority 2020, published 2023).

How the values were obtained:
rat liver microsomes = assay: Metabolic stability in rat liver microsomes (RLM); details: for RLM (metabolized or not): last time point 120 min; for RLM, % (half-life as % vs. the related nondeuterated compound): values in square brackets are within 10% difference (assay's accuracy), no deuteration effect
hrMAO-A = target: T1, hrMAO-A (Homo sapiens, UniProt P21397); assay: Metabolic stability in the presence of hrMAO-A; type: in vitro ADME; details: for MAO, % (half-life as % vs. the related nondeuterated compound) / MAO (metabolized or not): MAO-A assay; for MAO, % (half-life as % vs. the related nondeuterated compound): values in square brackets are within 10% difference (assay's accuracy), no deuteration effect; for MAO (metabolized or not): last time point 120 min
T1 construct: purchased XenoTech Lot# 8213001
T1 sequence (P21397 1-527): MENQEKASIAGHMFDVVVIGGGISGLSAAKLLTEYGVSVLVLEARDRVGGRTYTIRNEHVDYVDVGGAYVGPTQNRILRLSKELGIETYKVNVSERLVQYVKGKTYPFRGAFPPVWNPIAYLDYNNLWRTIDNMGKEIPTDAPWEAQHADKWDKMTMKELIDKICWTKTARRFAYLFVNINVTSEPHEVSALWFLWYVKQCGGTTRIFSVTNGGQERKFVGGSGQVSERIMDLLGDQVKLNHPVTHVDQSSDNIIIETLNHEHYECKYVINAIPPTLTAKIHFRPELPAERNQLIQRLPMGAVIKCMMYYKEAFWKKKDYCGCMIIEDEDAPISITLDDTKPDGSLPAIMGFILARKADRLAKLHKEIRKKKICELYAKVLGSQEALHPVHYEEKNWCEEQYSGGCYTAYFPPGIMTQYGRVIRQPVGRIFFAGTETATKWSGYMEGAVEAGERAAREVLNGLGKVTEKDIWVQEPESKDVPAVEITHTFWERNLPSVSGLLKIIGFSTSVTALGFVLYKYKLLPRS
Procedure: The reaction mixture was prepared as described below. The co-dosed TAs were added into the reaction mixture at a final concentration of 1 microM each. The positive control, kynuramine (25 microM), was run simultaneously with the TAs in a separate reaction. The reaction mixture (without TAs or kynuramine) was equilibrated in a shaking water bath at 37° C. for 5 minutes. The reaction was initiated by the addition of the TAs or kynuramine, and the mixture was incubated in a shaking water bath at 37° C. Aliquots (100 microL) of the TA reaction mixture were withdrawn at 0, 5, 10, 20, 30, 60, and 120 minutes. Aliquots (100 microL) of the positive control reaction mixture were withdrawn at 0 and 30 minutes. TA and kynuramine samples were immediately combined with 100 microL of ice-cold 100% MeCN containing 0.1% formic acid and IS to terminate the reaction. The samples were then mixed and centrifuged to precipitate proteins. All TA samples were assayed by LC-HRAMS. The PARR (analyte to IS) at each time point was compared to the PARR at time 0 to determine the percent remaining at each time point. Reaction composition: hrMAO 0.02 mg/mL; Potassium Phosphate, pH 7.4 100 mM; Magnesium Chloride 5 mM; Test Articles (each) 1 microM.

SMILES	RLM (metabolized or not) (rat liver microsomes; RLM assay)	MAO (metabolized or not) (hrMAO-A)	also measured
C=CCN(CC=C)CCc1c[nH]c2ccccc12	R		
C=CCNCCc1c[nH]c2ccccc12	R		
[2H]C([2H])(Cc1c[nH]c2ccccc12)NC([2H])([2H])C([2H])([2H])[2H]			MAO, % (half-life as % vs. the related nondeuterated compound) (hrMAO-A): 170%
[2H]C([2H])([2H])C([2H])([2H])NC([2H])([2H])C([2H])([2H])c1c[nH]c2cccc(O)c12			RLM, % (half-life as % vs. the related nondeuterated compound) (rat liver microsomes; RLM assay): [93] %
CCN(CC)CCc1c[nH]c2ccccc12	R		
[2H]C([2H])(c1c[nH]c2ccc(OC)cc12)C([2H])([2H])N(CC)CC			RLM, % (half-life as % vs. the related nondeuterated compound) (rat liver microsomes; RLM assay): [95] %
CCN(CC)CCc1c[nH]c2ccc(OC)cc12	R		
CCN(CC)CCc1c[nH]c2ccc(O)cc12	R		
CCN(CC)CCc1c[nH]c2cccc(OC)c12	R		
[2H]c1ccc2[nH]c([2H])c(CCN([2H])CC)c2c1O	R		
[2H]C([2H])(NCC)C([2H])([2H])c1c[nH]c2ccccc12			MAO, % (half-life as % vs. the related nondeuterated compound) (hrMAO-A): 140%
CCNCCc1c[nH]c2ccccc12	R	R	
[2H]C([2H])(NCC)C([2H])([2H])c1c[nH]c2cccc(O)c12			RLM, % (half-life as % vs. the related nondeuterated compound) (rat liver microsomes; RLM assay): [94] %
CCNCCc1c[nH]c2cccc(O)c12	R		
CCN(C)CCc1c[nH]c2ccccc12	R	R	
CCN(C)CCc1c[nH]c2ccc(OC)cc12	R	R	

SMILES	RLM (metabolized or not) (rat liver microsomes; RLM assay)	MAO (metabolized or not) (hrMAO-A)	also measured
CCN(C)CCc1c[nH]c2ccc(O)cc12	R	R	
CCN(C)CCc1c[nH]c2cccc(OC)c12	R	R	
COc1ccc2[nH]cc(CCN(C)C)c2c1	R	R	
CN(C)CCc1c[nH]c2ccc(O)cc12	R	R	
[2H]C([2H])(c1c[nH]c2cccc(OC)c12)C([2H])([2H])N(C)C			RLM, % (half-life as % vs. the related nondeuterated compound) (rat liver microsomes; RLM assay): 190%
COc1cccc2[nH]cc(CCN(C)C)c12	R	R	
CNCCc1c[nH]c2ccccc12	R	R	
[2H]C([2H])(NC)C([2H])([2H])c1c[nH]c2cccc(O)c12			RLM, % (half-life as % vs. the related nondeuterated compound) (rat liver microsomes; RLM assay): 160%
CNCCc1c[nH]c2cccc(O)c12	R	R	
CC(C)NCCc1c[nH]c2ccccc12	R		
CC(C)NCCc1c[nH]c2cccc(O)c12	R		
[2H]C([2H])(c1c[nH]c2cccc(O)c12)C([2H])([2H])N(C(C)C)C(C)C			RLM, % (half-life as % vs. the related nondeuterated compound) (rat liver microsomes; RLM assay): [97] %
CC(C)N(CCc1c[nH]c2cccc(O)c12)C(C)C	R		
[2H]C([2H])(Cc1c[nH]c2ccccc12)N(C)C [DMT-d2]			CLint (hrMAO-A; hrMAO-A, four test articles): 0.126 mL/min/ mg protein; % Remaining of Initial 0 min (hrMAO-A; hrMAO-A, four test articles): 100%; % Remaining of Initial 60 min (hrMAO-A; hrMAO-A, four test articles, 60 min): 76.0%; % Remaining of Initial 0 min (rat liver microsomes; RLM, four test articles): 100%; % Remaining of Initial 60 min (rat liver microsomes; RLM, four test articles, 60 min): 32.0%
[2H]C([2H])(c1c[nH]c2ccccc12)C([2H])([2H])N(C)C [DMT-d4]			CLint (hrMAO-A; hrMAO-A, four test articles): 0.119 mL/min/ mg protein; % Remaining of Initial 0 min (hrMAO-A; hrMAO-A, four test articles): 100%; % Remaining of Initial 0 min (rat liver microsomes; RLM, four test articles): 100%
[2H]c1[nH]c2c([2H])c([2H])c([2H])c([2H])c2c1C([2H])([2H])C([2H])([2H])N(C([2H])([2H])[2H])C([2H])([2H])[2H] [DMT-dis]			half-life compared to DMT-d10 (rat liver microsomes; RLM assay, additional deuteration in the phenyl ring): no improvement in half-life
